Laboratory results reported in patent US20240343704A1, “HALO-SUBSTITUTED AMINO PYRIDINE COMPOUNDS AS INHIBITORS OF THE HAEMATOPOIETIC PROGENITOR KINASE 1 (HPK1)” (priority 2021, published 2024).

Biological target: T1, Recombinant (1-346) HPK1 (h) (Homo sapiens, UniProt Q92918)
T1 construct: Recombinant (1-346) HPK1 (h) is incubated with 8 mM MOPS pH 7.0
T1 sequence (Q92918 1-346): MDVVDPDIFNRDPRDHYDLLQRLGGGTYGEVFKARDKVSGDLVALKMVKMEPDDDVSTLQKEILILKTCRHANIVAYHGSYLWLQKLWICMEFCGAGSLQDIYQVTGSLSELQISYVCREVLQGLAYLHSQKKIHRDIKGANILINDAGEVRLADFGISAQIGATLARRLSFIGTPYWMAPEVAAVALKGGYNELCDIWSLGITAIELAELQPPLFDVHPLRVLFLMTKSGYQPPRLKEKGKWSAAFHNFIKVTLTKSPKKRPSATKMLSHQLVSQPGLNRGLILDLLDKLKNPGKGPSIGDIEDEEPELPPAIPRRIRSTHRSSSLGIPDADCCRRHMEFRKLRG
Experiment: HPK1 Human STE Kinase Enzymatic Radiometric Assay
Format: biochemical
Conditions: read-out: HPK1 IC50 nM Range*
Experimental: A stock solution of 10 mM of test compound is prepared in DMSO. The compound plate was prepared by 3-fold and 9-point serial dilutions. […] The reaction is initiated by The addition of the Mg/ATP mix. After incubation for 40 minutes at RT, the reaction is stopped by the addition of phosphoric acid to a concentration of 0.5%.

`Nc1nc(F)c(-c2ccc(N3CCCCC3)cc2)cc1-c1ccc2c(c1)CCNC2=O` [I-60, 6-(2-amino-6-fluoro-5-(4-(piperidin-1-yl)phenyl)pyridin-3-yl)-3,4-dihydroisoquinolin-1(2H)-one] and `CN1CC2(CCN(c3ccc(-c4cc(-c5ccc6c(c5)CCNC6=O)c(N)nc4F)cc3)CC2)C1` [I-430, 6-(2-amino-6-fluoro-5-(4-(2-methyl-2,7-diazaspiro[3.5]nonan-7-yl)phenyl)pyridin-3-yl)-3,4-dihydroisoquinolin-1(2H)-one] fall in the same range of IC50: 0.1 to 10 nM for the first, 0.1 to 10 nM for the second.

`Nc1nc(F)c(-c2ccc(OC3CCNCC3)c(C(F)(F)F)c2)cc1-c1ccc2c(c1)CCNC2=O` [I-190, 6-(2-amino-6-fluoro-5-(4-(piperidin-4-yloxy)-3-(trifluoromethyl)phenyl)pyridin-3-yl)-3,4-dihydroisoquinolin-1(2H)-one] and `COc1ccc(-c2cc(-c3ccc4c(c3)CCNC4=O)c(N)nc2F)cc1CN(C)C` [I-459, 6-(2-amino-5-(3-((dimethylamino)methyl)-4-methoxyphenyl)-6-fluoropyridin-3-yl)-3,4-dihydroisoquinolin-1(2H)-one] fall in the same range of IC50: 11 to 100 nM for the first, 11 to 100 nM for the second.

Compared with `CC(=O)N1CCC(Oc2ccc(-c3cc(-c4cc5c(cc4F)C(=O)NCC5)c(N)nc3F)cc2C#N)CC1` [I-291, 2-((1-acetylpiperidin-4-yl)oxy)-5-(6-amino-2-fluoro-5-(7-fluoro-1-oxo-1,2,3,4-tetrahydroisoquinolin-6-yl)pyridin-3-yl)benzonitrile], `CN1CCC[C@H]1c1cccc(-c2cc(-c3cc4c(cc3F)C(=O)NCC4)c(N)nc2F)c1` [I-444, (S)-6-(2-amino-6-fluoro-5-(3-(1-methylpyrrolidin-2-yl)phenyl)pyridin-3-yl)-7-fluoro-3,4-dihydroisoquinolin-1(2H)-one] is higher in IC50: 0.1 to 10 nM for the first, 11 to 100 nM for the second. The first is the more potent here.

`Nc1nc(F)c(-c2ccc(CN3CCOCC3)cc2)cc1-c1cc(F)c2c(c1)CCNC2=O` [I-360, 6-(2-amino-6-fluoro-5-(4-(morpholinomethyl)phenyl)pyridin-3-yl)-8-fluoro-3,4-dihydroisoquinolin-1(2H)-one] and `Nc1nc(F)c(-c2ccc(N3CCOCC3)c(F)c2)cc1-c1cc(F)c2c(c1)CCNC2=O` [I-361, 6-(2-amino-6-fluoro-5-(3-fluoro-4-morpholinophenyl)pyridin-3-yl)-8-fluoro-3,4-dihydroisoquinolin-1(2H)-one] fall in the same range of IC50: 0.1 to 10 nM for the first, 0.1 to 10 nM for the second.

`CC(C)N1CCN(c2ccc(-c3cc(-c4ccc5c(=O)[nH]c(C6CC6)nc5c4)c(N)nc3F)cc2)CC1` [I-412, 7-(2-amino-6-fluoro-5-(4-(4-isopropylpiperazin-1-yl)phenyl)pyridin-3-yl)-2-cyclopropylquinazolin-4(3H)-one] and `CC(C)N1CCN(c2ccc(-c3cc(-c4ccc5c(=O)[nH]c(C6CCC6)nc5c4)c(N)nc3F)cc2)CC1` [I-413, 7-(2-amino-6-fluoro-5-(4-(4-isopropylpiperazin-1-yl)phenyl)pyridin-3-yl)-2-cyclobutylquinazolin-4(3H)-one] fall in the same range of IC50: 101 to 1000 nM for the first, 101 to 1000 nM for the second.

Compared with `CC(C)N1CCN(c2ccc(-c3cc(-c4ccc5c(=O)[nH]c(Cl)nc5c4)c(N)nc3F)cc2)CC1` [I-418, 7-(2-amino-6-fluoro-5-(4-(4-isopropylpiperazin-1-yl)phenyl)pyridin-3-yl)-2-chloroquinazolin-4(3H)-one], `CC(C)N1CCN(c2ccc(-c3cc(-c4ccc5c(=O)[nH]c(N)nc5c4)c(N)nc3F)cc2)CC1` [I-422, 2-amino-7-(2-amino-6-fluoro-5-(4-(4-isopropylpiperazin-1-yl)phenyl)pyridin-3-yl)quinazolin-4(3H)-one] is lower in IC50: 101 to 1000 nM for the first, 0.1 to 10 nM for the second. The second is the more potent here.

`COc1nc2cc(-c3cc(-c4ccc(N5CCN(C(C)C)CC5)cc4)c(F)nc3N)ccc2c(=O)[nH]1` [I-419, 7-(2-amino-6-fluoro-5-(4-(4-isopropylpiperazin-1-yl)phenyl)pyridin-3-yl)-2-methoxyquinazolin-4(3H)-one] and `CNc1nc2cc(-c3cc(-c4ccc(N5CCN(C(C)C)CC5)cc4)c(F)nc3N)ccc2c(=O)[nH]1` [I-421, 7-(2-amino-6-fluoro-5-(4-(4-isopropylpiperazin-1-yl)phenyl)pyridin-3-yl)-2-(methylamino)quinazolin-4(3H)-one] fall in the same range of IC50: 11 to 100 nM for the first, 11 to 100 nM for the second.

First: CC(C)N1CCN(c2ccc(-c3cc(-c4ccc5c(=O)[nH]c(N(C)C)nc5c4)c(N)nc3F)cc2)CC1 [I-420, 7-(2-amino-6-fluoro-5-(4-(4-isopropylpiperazin-1-yl)phenyl)pyridin-3-yl)-2-(dimethylamino)quinazolin-4(3H)-one]
Second: CC(C)N1CCN(c2ccc(-c3cc(-c4ccc5c(c4)S(=O)(=O)CNC5=O)c(N)nc3F)cc2)CC1 [I-424, 7-(2-amino-6-fluoro-5-(4-(4-isopropylpiperazin-1-yl)phenyl)pyridin-3-yl)-2,3-dihydro-4H-benzo[e][1,3]thiazin-4-one 1,1-dioxide]
The IC50 of the first is higher: 101 to 1000 nM for the first, 11 to 100 nM for the second. The second is the more potent here.

First: CCN(C)Cc1cc(-c2cc(-c3ccc4c(c3)CCNC4=O)c(N)nc2F)ccc1C1CCOCC1 [I-428, 6-(2-amino-5-(3-((ethyl(methyl)amino)methyl)-4-(tetrahydro-2H-pyran-4-yl)phenyl)-6-fluoropyridin-3-yl)-3,4-dihydroisoquinolin-1(2H)-one]
Second: CN(C)Cc1cc(-c2cc(-c3ccc4c(c3)CCNC4=O)c(N)nc2F)ccc1N1CCN(C2CCC2)CC1 [I-461, 6-(2-amino-5-(4-(4-cyclobutylpiperazin-1-yl)-3-((dimethylamino)methyl)phenyl)-6-fluoropyridin-3-yl)-3,4-dihydroisoquinolin-1(2H)-one]
The IC50 of the first is higher: 11 to 100 nM for the first, 0.1 to 10 nM for the second. The second is the more potent here.

`CN(C)Cc1cc(-c2cc(-c3cc4c(cc3F)C(=O)NCC4)c(N)nc2F)ccc1N1CCOCC1` [I-433, 6-(2-amino-5-(3-((dimethylamino)methyl)-4-morpholinophenyl)-6-fluoropyridin-3-yl)-7-fluoro-3,4-dihydroisoquinolin-1(2H)-one] and `CN(C)Cc1cc(-c2cc(-c3cc4c(cc3F)C(=O)NCC4)c(N)nc2F)ccc1N1CCN(C2CCCC2)CC1` [I-452, 6-(2-amino-5-(4-(4-cyclopentylpiperazin-1-yl)-3-((dimethylamino)methyl)phenyl)-6-fluoropyridin-3-yl)-7-fluoro-3,4-dihydroisoquinolin-1(2H)-one] fall in the same range of IC50: 0.1 to 10 nM for the first, 0.1 to 10 nM for the second.

First: COc1cc2c(cc1-c1cc(-c3ccc4c(c3)CCNC4=O)c(N)nc1F)CN(C)CC2 [I-438, 6-(2-amino-6-fluoro-5-(6-methoxy-2-methyl-1,2,3,4-tetrahydroisoquinolin-7-yl)pyridin-3-yl)-3,4-dihydroisoquinolin-1(2H)-one]
Second: COCCN1CCc2c(C)cc(-c3cc(-c4ccc5c(c4)CCNC5=O)c(N)nc3F)cc2C1 [I-448, 6-(2-amino-6-fluoro-5-(2-(2-methoxyethyl)-5-methyl-1,2,3,4-tetrahydroisoquinolin-7-yl)pyridin-3-yl)-3,4-dihydroisoquinolin-1(2H)-one]
The IC50 of the first is higher: 11 to 100 nM for the first, 0.1 to 10 nM for the second. The second is the more potent here.

`CN(C)Cc1cc(-c2cc(-c3ccc4c(c3)CCNC4=O)c(N)nc2F)ccc1N1CCN(C(=O)OC(C)(C)C)CC1` [I-442, tert-butyl 4-(4-(6-amino-2-fluoro-5-(1-oxo-1,2,3,4-tetrahydroisoquinolin-6-yl)pyridin-3-yl)-2-((dimethylamino)methyl)phenyl)piperazine-1-carboxylate] and `CN(C)Cc1cc(-c2cc(-c3cc4c(cc3F)C(=O)NCC4)c(N)nc2F)ccc1N1CCN(CCCC(F)F)CC1` [I-447, 6-(2-amino-5-(4-(4-(4,4-difluorobutyl)piperazin-1-yl)-3-((dimethylamino)methyl)phenyl)-6-fluoropyridin-3-yl)-7-fluoro-3,4-dihydroisoquinolin-1(2H)-one] fall in the same range of IC50: 0.1 to 10 nM for the first, 0.1 to 10 nM for the second.

Compared with `CN1CCC[C@H]1c1cccc(-c2cc(-c3ccc4c(c3)CCNC4=O)c(N)nc2F)c1` [I-443, (S)-6-(2-amino-6-fluoro-5-(3-(1-methylpyrrolidin-2-yl)phenyl)pyridin-3-yl)-3,4-dihydroisoquinolin-1(2H)-one], `CC(C)N1CCN(c2ccc(-c3cc(-c4ncc5c(n4)CCNC5=O)c(N)nc3F)cc2)CC1` [I-458, 2-(2-amino-6-fluoro-5-(4-(4-isopropylpiperazin-1-yl)phenyl)pyridin-3-yl)-7,8-dihydropyrido[4,3-d]pyrimidin-5(6H)-one] is lower in IC50: 101 to 1000 nM for the first, 0.1 to 10 nM for the second.

First: COC1(C)NC(=O)c2ccc(-c3cc(-c4ccc(N5CCN(C(C)C)CC5)cc4)c(F)nc3N)cc2C1(F)F (centres unmarked) [I-450, 6-(2-amino-6-fluoro-5-(4-(4-isopropylpiperazin-1-yl)phenyl)pyridin-3-yl)-4,4-difluoro-3-methoxy-3-methyl-3,4-dihydroisoquinolin-1(2H)-one]
Second: Cc1[nH]c(=O)c2ccc(-c3cc(-c4ccc(N5CCN(CC6CC6)CC5)cc4)c(F)nc3N)cc2c1F [I-456, 6-(2-amino-5-(4-(4-(cyclopropylmethyl)piperazin-1-yl)phenyl)-6-fluoropyridin-3-yl)-4-fluoro-3-methylisoquinolin-1(2H)-one]
The IC50 of the first is higher: 11 to 100 nM for the first, 0.1 to 10 nM for the second. The second is the more potent here.

Molecule `CN(C)Cc1cc(-c2cc(-c3ccc4c(=O)[nH]ccc4c3)c(N)nc2F)ccc1N1CCN(CCCC(F)F)CC1` [I-453, 6-(2-amino-5-(4-(4-(4,4-difluorobutyl)piperazin-1-yl)-3-((dimethylamino)methyl)phenyl)-6-fluoropyridin-3-yl)isoquinolin-1(2H)-one] has an IC50 of 0.1 to 10 nM.
